Reference: BindingDB's records for doi:10.1016/0960-894X(95)00483-A (1995)
pIC50: −log10 of the molar value.

Target: Beta-2 adrenergic receptor (Rattus norvegicus) (UniProt P10608)
Assay: Agonistic activity against Beta-2 adrenergic receptor in rat uterus

Sequence of Beta-2 adrenergic receptor (Rattus norvegicus) (P10608 whole entry, looked up): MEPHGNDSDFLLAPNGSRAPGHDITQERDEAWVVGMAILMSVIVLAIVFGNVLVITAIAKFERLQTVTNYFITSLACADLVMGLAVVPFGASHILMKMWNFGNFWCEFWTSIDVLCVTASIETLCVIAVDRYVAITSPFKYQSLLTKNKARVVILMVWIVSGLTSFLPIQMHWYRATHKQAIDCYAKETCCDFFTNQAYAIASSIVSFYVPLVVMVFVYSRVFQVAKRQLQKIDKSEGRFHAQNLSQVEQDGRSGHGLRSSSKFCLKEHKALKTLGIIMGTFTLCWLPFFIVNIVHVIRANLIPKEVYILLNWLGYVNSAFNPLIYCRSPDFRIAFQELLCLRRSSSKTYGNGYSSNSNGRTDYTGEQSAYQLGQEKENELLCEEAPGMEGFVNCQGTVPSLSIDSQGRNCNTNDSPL

O=C(O)C1(C(=O)O)Oc2cc3c(cc2O1)C[C@@H](NC[C@H](O)c1cccc(Cl)c1)CCC3 [FR-165914]
pIC50: < 5.00
